According to ChEMBL document CHEMBL3137667, “[Drug-induced liver injury; fourteenth updated edition of the bibliographic database of liver injuries and related drugs]” (Gastroenterol Clin Biol, 2004):

How the values were obtained:
[1] = human, serum
[2] = Highest frequency of moderate liver toxicity observed during clinical trials, expressed as a percentage. [column '% BIOL' in source]; conditions: human
[3] = human
[4] = human; remark: listed apart in the source
[5] = human; remark: listed apart in the source
[6] = human, serum, 4383 h
[7] = Highest frequency of acute liver toxicity observed during clinical trials, expressed as a percentage. [column '% AIGUE' in source]; conditions: human
[8] = human, serum; remark: listed apart in the source
[9] = human; remark: listed apart in the source
[10] = human; remark: listed apart in the source
[11] = human; remark: listed apart in the source
[12] = human; remark: listed apart in the source
[13] = human; remark: listed apart in the source
[14] = human; remark: listed apart in the source
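Wherever Hepatotoxicity (association with vascular disease) is given: count of indexed literature references reporting vascular liver injury in humans, e.g. peliosis hepatitis, hepatic veno-occlusive disease or Budd-Chiari syndrome.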
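Wherever Hepatotoxicity (benign tumour) is given: value is a count of indexed literature references citing a benign tumour confirmed by histopathology.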
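Wherever Hepatotoxicity (choleostasis) is given: human cholestatic liver injury, shown by histopathology or by peak ALT or AST elevation over alkaline phosphatase ratio below 2, value counts indexed literature reports.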
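Wherever Hepatotoxicity (chronic liver disease) is given: chronic liver injury confirmed by histopathology or persistently raised serum aminotransferase activity beyond 6 months, value given as the count of indexed literature references.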
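Wherever Hepatotoxicity (cirrhosis) is given: value is a count of indexed literature references reporting cirrhosis confirmed by histopathology.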
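Wherever Hepatotoxicity (cytolytic) is given: human cytolytic liver injury, shown by histopathology or by a ratio above 5 of peak ALT or AST elevation to alkaline phosphatase elevation, value counts indexed references.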
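Wherever Hepatotoxicity (granulomatous hepatitis) is given: value is a count of indexed literature references reporting granulomatous liver disease confirmed by histopathology.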
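Wherever Hepatotoxicity (malignant tumour) is given: malignant tumour confirmed by histopathology, value gives the count of indexed literature references reporting it.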
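Wherever Hepatotoxicity (severe hepatitis) is given: human clinical data: severe hepatitis, meaning potentially life-threatening liver failure or clinically observed cases, the value counts how many indexed literature references report it.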
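Wherever Hepatotoxicity (steatosis) is given: steatosis confirmed by histopathology, value is the count of indexed references.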

CC(C)c1nc(N(C)S(C)(=O)=O)nc(-c2ccc(F)cc2)c1/C=C/[C@@H](O)C[C@@H](O)CC(=O)O [ROSUVASTATIN]
Hepatotoxicity (acute) [1]: 1
Hepatotoxicity (moderate) [2]: 0%
Hepatotoxicity (granulomatous hepatitis) [3]: 0
Hepatotoxicity (malignant tumour) [4]: 0
Hepatotoxicity (choleostasis) [5]: 0
Hepatotoxicity (chronic liver disease) [6]: 0
Hepatotoxicity (acute) [7]: 0.1%
Hepatotoxicity (moderate) [8]: 0
Hepatotoxicity (benign tumour) [9]: 0
Hepatotoxicity (cirrhosis) [10]: 0
Hepatotoxicity (steatosis) [11]: 0
Hepatotoxicity (severe hepatitis) [12]: 0
Hepatotoxicity (association with vascular disease) [13]: 0
Hepatotoxicity (cytolytic) [14]: 1

Oc1ccc2[nH]cc(CCCCN3CC=C(c4ccccc4)CC3)c2c1 [ROXINDOLE]
Hepatotoxicity (acute) [1]: 0
Hepatotoxicity (moderate) [2]: 10%
Hepatotoxicity (granulomatous hepatitis) [3]: 0
Hepatotoxicity (malignant tumour) [4]: 0
Hepatotoxicity (choleostasis) [5]: 0
Hepatotoxicity (chronic liver disease) [6]: 0
Hepatotoxicity (acute) [7]: 0%
Hepatotoxicity (moderate) [8]: 1
Hepatotoxicity (benign tumour) [9]: 0
Hepatotoxicity (cirrhosis) [10]: 0
Hepatotoxicity (steatosis) [11]: 0
Hepatotoxicity (severe hepatitis) [12]: 0
Hepatotoxicity (association with vascular disease) [13]: 0
Hepatotoxicity (cytolytic) [14]: 0

OCc1cc(C(O)CNCCCCCCOCCCCc2ccccc2)ccc1O (stereo not given) [SALMETEROL]
Hepatotoxicity (acute) [1]: 0
Hepatotoxicity (moderate) [2]: 1.8%
Hepatotoxicity (granulomatous hepatitis) [3]: 0
Hepatotoxicity (malignant tumour) [4]: 0
Hepatotoxicity (choleostasis) [5]: 0
Hepatotoxicity (chronic liver disease) [6]: 0
Hepatotoxicity (acute) [7]: 0%
Hepatotoxicity (moderate) [8]: 1
Hepatotoxicity (benign tumour) [9]: 0
Hepatotoxicity (cirrhosis) [10]: 0
Hepatotoxicity (steatosis) [11]: 0
Hepatotoxicity (severe hepatitis) [12]: 0
Hepatotoxicity (association with vascular disease) [13]: 0
Hepatotoxicity (cytolytic) [14]: 0

O=C1NCCN1CCN1CCC(c2cn(-c3ccc(F)cc3)c3ccc(Cl)cc23)CC1 [SERTINDOLE]
Hepatotoxicity (acute) [1]: 0
Hepatotoxicity (moderate) [2]: 1.4%
Hepatotoxicity (granulomatous hepatitis) [3]: 0
Hepatotoxicity (malignant tumour) [4]: 0
Hepatotoxicity (choleostasis) [5]: 0
Hepatotoxicity (chronic liver disease) [6]: 0
Hepatotoxicity (acute) [7]: 0%
Hepatotoxicity (moderate) [8]: 1
Hepatotoxicity (benign tumour) [9]: 0
Hepatotoxicity (cirrhosis) [10]: 0
Hepatotoxicity (steatosis) [11]: 0
Hepatotoxicity (severe hepatitis) [12]: 0
Hepatotoxicity (association with vascular disease) [13]: 0
Hepatotoxicity (cytolytic) [14]: 0

CN[C@@H]1[C@@H](O)[C@@H](O[C@@H]2[C@@H](O)[C@H](O[C@H]3OC(CN)=CC[C@H]3N)[C@@H](N)C[C@H]2N)OC[C@]1(C)O [SISOMICIN]
Hepatotoxicity (acute) [1]: 0
Hepatotoxicity (moderate) [2]: 5.7%
Hepatotoxicity (granulomatous hepatitis) [3]: 0
Hepatotoxicity (malignant tumour) [4]: 0
Hepatotoxicity (choleostasis) [5]: 0
Hepatotoxicity (chronic liver disease) [6]: 0
Hepatotoxicity (acute) [7]: 0%
Hepatotoxicity (moderate) [8]: 2
Hepatotoxicity (benign tumour) [9]: 0
Hepatotoxicity (cirrhosis) [10]: 0
Hepatotoxicity (steatosis) [11]: 0
Hepatotoxicity (severe hepatitis) [12]: 0
Hepatotoxicity (association with vascular disease) [13]: 0
Hepatotoxicity (cytolytic) [14]: 0

N[C@@H]1CN(c2c(F)cc3c(=O)c(C(=O)O)cn([C@@H]4C[C@@H]4F)c3c2Cl)CC12CC2 [SITAFLOXACIN ANHYDROUS]
Hepatotoxicity (acute) [1]: 0
Hepatotoxicity (moderate) [2]: 23.2%
Hepatotoxicity (granulomatous hepatitis) [3]: 0
Hepatotoxicity (malignant tumour) [4]: 0
Hepatotoxicity (choleostasis) [5]: 0
Hepatotoxicity (chronic liver disease) [6]: 0
Hepatotoxicity (acute) [7]: 0%
Hepatotoxicity (moderate) [8]: 6
Hepatotoxicity (benign tumour) [9]: 0
Hepatotoxicity (cirrhosis) [10]: 0
Hepatotoxicity (steatosis) [11]: 0
Hepatotoxicity (severe hepatitis) [12]: 0
Hepatotoxicity (association with vascular disease) [13]: 0
Hepatotoxicity (cytolytic) [14]: 0

Cc1cc2c(cc1CC(=O)c1sccc1S(=O)(=O)Nc1onc(C)c1Cl)OCO2 [SITAXENTAN]
Hepatotoxicity (acute) [1]: 0
Hepatotoxicity (moderate) [2]: 0%
Hepatotoxicity (granulomatous hepatitis) [3]: 0
Hepatotoxicity (malignant tumour) [4]: 0
Hepatotoxicity (choleostasis) [5]: 0
Hepatotoxicity (chronic liver disease) [6]: 0
Hepatotoxicity (acute) [7]: 0%
Hepatotoxicity (moderate) [8]: 1
Hepatotoxicity (benign tumour) [9]: 0
Hepatotoxicity (cirrhosis) [10]: 0
Hepatotoxicity (steatosis) [11]: 0
Hepatotoxicity (severe hepatitis) [12]: 0
Hepatotoxicity (association with vascular disease) [13]: 0
Hepatotoxicity (cytolytic) [14]: 0

O=c1[nH]c(=O)n([C@@H]2O[C@H](CO)[C@@H](O)[C@@H]2O)cc1/C=C/Br [SORIVUDINE]
Hepatotoxicity (acute) [1]: 0
Hepatotoxicity (moderate) [2]: 2%
Hepatotoxicity (granulomatous hepatitis) [3]: 0
Hepatotoxicity (malignant tumour) [4]: 0
Hepatotoxicity (choleostasis) [5]: 0
Hepatotoxicity (chronic liver disease) [6]: 0
Hepatotoxicity (acute) [7]: 0%
Hepatotoxicity (moderate) [8]: 1
Hepatotoxicity (benign tumour) [9]: 0
Hepatotoxicity (cirrhosis) [10]: 0
Hepatotoxicity (steatosis) [11]: 0
Hepatotoxicity (severe hepatitis) [12]: 0
Hepatotoxicity (association with vascular disease) [13]: 0
Hepatotoxicity (cytolytic) [14]: 0

C[C@@H]1CN(c2c(F)c(N)c3c(=O)c(C(=O)O)cn(C4CC4)c3c2F)C[C@H](C)N1 [SPARFLOXACIN]
Hepatotoxicity (acute) [1]: 0
Hepatotoxicity (moderate) [2]: 20%
Hepatotoxicity (granulomatous hepatitis) [3]: 0
Hepatotoxicity (malignant tumour) [4]: 0
Hepatotoxicity (choleostasis) [5]: 0
Hepatotoxicity (chronic liver disease) [6]: 0
Hepatotoxicity (acute) [7]: 0%
Hepatotoxicity (moderate) [8]: 29
Hepatotoxicity (benign tumour) [9]: 0
Hepatotoxicity (cirrhosis) [10]: 0
Hepatotoxicity (steatosis) [11]: 0
Hepatotoxicity (severe hepatitis) [12]: 0
Hepatotoxicity (association with vascular disease) [13]: 0
Hepatotoxicity (cytolytic) [14]: 0

Cc1nc(NS(=O)(=O)c2ccc(N)cc2)oc1C [SULFAMOXOLE]
Hepatotoxicity (acute) [1]: 1
Hepatotoxicity (moderate) [2]: 0%
Hepatotoxicity (granulomatous hepatitis) [3]: 0
Hepatotoxicity (malignant tumour) [4]: 0
Hepatotoxicity (choleostasis) [5]: 0
Hepatotoxicity (chronic liver disease) [6]: 0
Hepatotoxicity (acute) [7]: 0%
Hepatotoxicity (moderate) [8]: 0
Hepatotoxicity (benign tumour) [9]: 0
Hepatotoxicity (cirrhosis) [10]: 0
Hepatotoxicity (steatosis) [11]: 0
Hepatotoxicity (severe hepatitis) [12]: 0
Hepatotoxicity (association with vascular disease) [13]: 0
Hepatotoxicity (cytolytic) [14]: 0

Nc1ccc(S(=O)(=O)Nc2nccs2)cc1 [SULFATHIAZOLE]
Hepatotoxicity (acute) [1]: 0
Hepatotoxicity (moderate) ([2]; Liver): 0%
Hepatotoxicity (granulomatous hepatitis) ([3]; Liver): 0
Hepatotoxicity (malignant tumour) [4]: 0
Hepatotoxicity (choleostasis) ([5]; Liver): 0
Hepatotoxicity (chronic liver disease) [6]: 0
Hepatotoxicity (acute) ([7]; Liver): 0%
Hepatotoxicity (moderate) [8]: 1
Hepatotoxicity (benign tumour) [9]: 0
Hepatotoxicity (cirrhosis) [10]: 0
Hepatotoxicity (steatosis) [11]: 0
Hepatotoxicity (severe hepatitis) ([12]; Liver): 0
Hepatotoxicity (association with vascular disease) [13]: 0
Hepatotoxicity (cytolytic) ([14]; Liver): 0

Cc1cc(NS(=O)(=O)c2ccc(N)cc2)nc(C)n1 [SULFISOMIDINE]
Hepatotoxicity (acute) [1]: 1
Hepatotoxicity (moderate) [2]: 0%
Hepatotoxicity (granulomatous hepatitis) [3]: 0
Hepatotoxicity (malignant tumour) [4]: 0
Hepatotoxicity (choleostasis) [5]: 0
Hepatotoxicity (chronic liver disease) [6]: 0
Hepatotoxicity (acute) [7]: 0%
Hepatotoxicity (moderate) [8]: 0
Hepatotoxicity (benign tumour) [9]: 0
Hepatotoxicity (cirrhosis) [10]: 0
Hepatotoxicity (steatosis) [11]: 0
Hepatotoxicity (severe hepatitis) [12]: 0
Hepatotoxicity (association with vascular disease) [13]: 0
Hepatotoxicity (cytolytic) [14]: 0

CC1(C)S[C@@H]2[C@H](NC(=O)[C@H](N)c3ccccc3)C(=O)N2[C@H]1C(=O)OCOC(=O)[C@@H]1N2C(=O)C[C@H]2S(=O)(=O)C1(C)C [SULTAMICILLIN]
Hepatotoxicity (acute) [1]: 1
Hepatotoxicity (moderate) [2]: 43%
Hepatotoxicity (granulomatous hepatitis) [3]: 0
Hepatotoxicity (malignant tumour) [4]: 0
Hepatotoxicity (choleostasis) [5]: 1
Hepatotoxicity (chronic liver disease) [6]: 0
Hepatotoxicity (acute) [7]: 0.2%
Hepatotoxicity (moderate) [8]: 61
Hepatotoxicity (benign tumour) [9]: 0
Hepatotoxicity (cirrhosis) [10]: 0
Hepatotoxicity (steatosis) [11]: 0
Hepatotoxicity (severe hepatitis) [12]: 0
Hepatotoxicity (association with vascular disease) [13]: 0
Hepatotoxicity (cytolytic) [14]: 0

Cc1nc(C)c2c(n1)N(Cc1ccc(-c3ccccc3-c3nnn[nH]3)cc1)C(=O)CC2 [TASOSARTAN]
Hepatotoxicity (acute) [1]: 0
Hepatotoxicity (moderate) [2]: 1.9%
Hepatotoxicity (granulomatous hepatitis) [3]: 0
Hepatotoxicity (malignant tumour) [4]: 0
Hepatotoxicity (choleostasis) [5]: 0
Hepatotoxicity (chronic liver disease) [6]: 0
Hepatotoxicity (acute) [7]: 0%
Hepatotoxicity (moderate) [8]: 2
Hepatotoxicity (benign tumour) [9]: 0
Hepatotoxicity (cirrhosis) [10]: 0
Hepatotoxicity (steatosis) [11]: 0
Hepatotoxicity (severe hepatitis) [12]: 0
Hepatotoxicity (association with vascular disease) [13]: 0
Hepatotoxicity (cytolytic) [14]: 0

CC[C@H]1OC(=O)[C@H](C)C(=O)[C@H](C)[C@@H](O[C@@H]2O[C@H](C)C[C@H](N(C)C)[C@H]2O)[C@](C)(OC)C[C@@H](C)C(=O)[C@H](C)[C@H]2N(CCCCn3cnc(-c4cccnc4)c3)C(=O)O[C@]12C [TELITHROMYCIN]
Hepatotoxicity (acute) [1]: 0
Hepatotoxicity (moderate) ([2]; Liver): 1.8%
Hepatotoxicity (granulomatous hepatitis) ([3]; Liver): 0
Hepatotoxicity (malignant tumour) [4]: 0
Hepatotoxicity (choleostasis) ([5]; Liver): 0
Hepatotoxicity (chronic liver disease) [6]: 0
Hepatotoxicity (acute) ([7]; Liver): 0%
Hepatotoxicity (moderate) [8]: 4
Hepatotoxicity (benign tumour) [9]: 0
Hepatotoxicity (cirrhosis) [10]: 0
Hepatotoxicity (steatosis) [11]: 0
Hepatotoxicity (severe hepatitis) ([12]; Liver): 0
Hepatotoxicity (association with vascular disease) [13]: 0
Hepatotoxicity (cytolytic) ([14]; Liver): 0
